Measured values reported in patent US20160022642A1, “Compounds Useful for Promoting Protein Degradation and Methods Using Same” (Yale University, priority 2014, published 2016).

Experiments:
Type in all cases: cell-based
androgen receptor (AR) = target: T1, androgen receptor (AR) (Homo sapiens, UniProt P10275, T878A); experiment: SARD-mediated AR degradation, western blot in LNCaP cells
T1 construct: endogenous in cells; host or cells: LNCaP
T1 sequence (P10275 1-920 T878A): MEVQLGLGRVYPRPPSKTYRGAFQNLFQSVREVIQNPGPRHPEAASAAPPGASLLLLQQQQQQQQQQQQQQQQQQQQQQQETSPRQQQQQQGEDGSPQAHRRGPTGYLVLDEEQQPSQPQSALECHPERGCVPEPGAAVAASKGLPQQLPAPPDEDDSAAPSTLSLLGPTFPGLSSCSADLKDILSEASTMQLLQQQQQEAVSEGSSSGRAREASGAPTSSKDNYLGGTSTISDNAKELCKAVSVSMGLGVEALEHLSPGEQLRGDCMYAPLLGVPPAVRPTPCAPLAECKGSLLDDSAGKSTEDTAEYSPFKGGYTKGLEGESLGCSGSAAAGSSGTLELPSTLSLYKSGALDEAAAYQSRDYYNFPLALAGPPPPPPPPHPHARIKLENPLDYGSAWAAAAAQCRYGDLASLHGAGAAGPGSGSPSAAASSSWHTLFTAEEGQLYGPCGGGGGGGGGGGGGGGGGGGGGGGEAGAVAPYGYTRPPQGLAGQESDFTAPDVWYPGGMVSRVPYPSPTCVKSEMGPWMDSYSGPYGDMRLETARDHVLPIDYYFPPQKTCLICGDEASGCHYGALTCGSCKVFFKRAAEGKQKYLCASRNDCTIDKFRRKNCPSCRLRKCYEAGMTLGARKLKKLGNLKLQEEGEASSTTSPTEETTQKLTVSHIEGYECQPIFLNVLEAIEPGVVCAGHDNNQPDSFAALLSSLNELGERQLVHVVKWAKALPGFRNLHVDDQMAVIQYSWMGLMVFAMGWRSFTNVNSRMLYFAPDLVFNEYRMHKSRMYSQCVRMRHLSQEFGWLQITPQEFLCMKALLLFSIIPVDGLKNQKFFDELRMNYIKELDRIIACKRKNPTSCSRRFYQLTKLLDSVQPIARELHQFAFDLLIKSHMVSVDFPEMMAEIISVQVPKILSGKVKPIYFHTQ
Protocol: FIG. 15A illustrates representative western blots of SARD mediated AR degradation. FIG. 15B is a graph illustrating the percentage of remaining AR as a function of SARD compound concentration.
(§1) FIGS. 32A-32B show a series of representative western blots of SARD-mediated AR degradation according to the present description. LNCaP cells were treated with indicated compounds for 24 hours and SARD 279 and RU59063 were used at 2.5 μM and 25 μM, respectively (FIG. 32A).
(§2) LNCaP and PC3 cells were obtained from ATCC. LNCaP/AR-876L and LNCaP/AR cells were generated by infecting LNCaP cells with the 876L or WT, respectively, AR. All cells were grown at 37° C. in RPMI and supplemented with 10% FBS, 100 U/ml carbenicillin and 100 μg/ml streptomycin. AR (5153) and Hsp70 (4872) antibodies were obtained from Cell Signaling. β-actin antibody (AC-74) was purchased from Sigma. Geldanamycin was purchased from Invivogen. The indicated cells were washed twice with cold PBS, and the cells were lysed in lysis buffer (1×PBS, 1% NP-40, 1 mM EDTA, 40 mM HEPES) with protease inhibitors. The lysates were cleared by centrifugation at 10,000 g for 5 min. The total protein concentration was determined by Bradford assay, and 10 μg of protein was loaded onto an 8% Bis-Tris gel. The blots were processed by standard procedures with the indicated antibodies, and the band intensities were quantified by ImageJ (US National Institutes of Health).

[1] = tested on: AR target genes (FKBP52, PMPEA 1, NKX3.1) in LNCaP-AR cells; experiment: AR-dependent gene expression by qPCR in LNCaP-AR cells; details: 18 hours; for AR agonist activity: expression of AR target genes: qPCR normalized to GAPDH
Protocol: (§3) LNCaP-AR cells were treated with hormone for 18 hours as indicated and then, RNA was isolated and FKBP52 expression was assessed by qPCR. GAPDH was used to normalize expression. Error represents standard deviation (Panel A). LNCaP cell proliferation assay in the presence of indicated compounds at 3 μM and then, the assay was performed in 10% FBS, and only viable cells were counted at each indicated day (Panel B). […] LNCaP/AR-F876L cells were treated with indicated compounds for 24 hours in 5% charcoal stripped FBS, and then, mRNA was prepared and the relative PSA mRNA was determined by qPCR (Panel D).
FIGS. 34A-34B are a series of graphs illustrating relative pMPEA1 mRNA levels (FIG. 34A) or relative NKX3.1 mRNA levels (FIG. 34B) after treated with SARDS compounds according to the present description. LNCaP-AR cells were treated with hormone for 18 hours and subsequently, mRNA was isolated and FKBP52 expression was assessed by qPCR. GAPDH was used to normalize expression. Error represents standard deviation.
The effects of the SARDS in the present description on AR-dependent gene expression in AR overexpressing LNCaP-AR cells, a validated cellular model of CRPC were examined. LNCaP-AR cells were treated with hormone for 18 hours as indicated. RNA was isolated and FKBP52 expression was assessed by QPCR. GAPDH was used to normalize expression. Error represents standard deviation.

Hsp70 = Hsp70 immunoblot in LNCaP cells treated with SARD 279 and geldanamycin; details: 24 hours
Protocol: as §1, §2

HEK 293T = experiment: Cell proliferation assay with HEK 293T cells; details: 3 μM
Protocol: (§4) FIGS. 35A-35B are a series of graphs illustrating results of cell proliferation assay. Cell proliferation assay was performed with AR-negative PC-3 prostate cancer cells (FIG. 35A). Indicated compounds at shown doses were added to previously plated PC-3 cells in phenol-red free RPMI, supplemented with 5% charcoal stripped FBS. CellTiterGlo readings were taken at indicated days and the data are plotted as a % of proliferation from Day 0. Cell proliferation assay was performed with HEK293 cells (FIG. 35B), which were plated at 2,000 cells/well in a 6-well plate and dosed with indicated compounds at 3 μM.

[2] = tested on: PC3 human prostate cancer cell line; experiment: Cell proliferation assay with AR-negative PC-3 prostate cancer cells (CellTiterGlo); details: 5% charcoal stripped FBS
Protocol: as §4

LnCAP cells [3] = experiment: LNCaP cell proliferation assay in the presence of 1 nM R1881 (CellTiterGlo); details: 5% charcoal stripped serum, 7 days
Protocol: as §3
For FIG. 33, panel C, the LNCaP cells were washed with PBS, seeded at 5,000 cells per well in a 96-well plate in 5% Charcoal Stripped Serum (Omega) in phenol-red free RPMI media (Invitrogen). […] Baseline CellTiterGlo (Promega) reading was taken immediately after addition of compounds and 7 days later. The data are plotted so that the Y axis reflects the degree of proliferation at Day 7, compared to Day 0.

HEK293 cells = experiment: General cell toxicity in AR-independent HEK293 cells; details: HEK293, 1 μM, 48 h
Protocol: (§5) To access general cell toxicity, AR-independent HEK293 and HELA cells were treated with 1 μM SARD 279.

HeLa cells = experiment: General cell toxicity in AR-independent HELA cells; details: 1 μM, 48 h
Protocol: as §5

LnCAP cells [4] = experiment: Proliferation of androgen-dependent LnCAP cells
Protocol: as §3
For FIG. 33, panel B, 2,000 cells in RPMI media, supplemented with 10% FBS, 100 U/ml carbenicillin and 100 μg/ml streptomycin, were plated into each well in a 6-well plate. Two days after plating, the cells were treated with indicated compounds. The number of cells in each well was counted with a hemocytometer using Trypan blue to distinguish viable cells.

Row | SMILES | AR degradation (in words) (androgen receptor (AR)) | AR agonist activity: expression of AR target genes [1] | Proliferation of HEK 293T cells (HEK 293T) | Proliferation of PC3 cells [2] | other results
1 | CC1(C)C(=O)N(c2ccc(C#N)c(C(F)(F)F)c2)C(=S)N1CCCCO [RU59063, 4-[3-(4-hydroxybutyl)-4,4-dimethyl-5-oxo-2-thioxoimidazolidin-1-yl]-2-(trifluoromethyl)benzonitrile, reference compound] | no degradation was detected | increasing expression of a number of AR target genes | – | – | –
2 | COC1=C2C[C@@H](C)C[C@H](OC)[C@H](O)[C@@H](C)/C=C(\C)[C@H](OC(N)=O)[C@@H](OC)/C=C\C=C(/C)C(=O)NC(=CC1=O)C2=O [geldanamycin, (4E,6Z,8S,9S,10E,12S,13R,14S,16R)-13-hydroxy-8,14,19-trimethoxy-4,10,12,16-tetramethyl-3,20,22-trioxo-2-azabicyclo[16.3.1]docosa-1(21),4,6,10,18-pentaen-9-yl carbamate] | – | – | – | – | Hsp70 levels (immunoblot) (Hsp70): geldanamycin-dependent increase in Hsp70 levels
3 | CNC(=O)c1ccc(N2C(=S)N(c3ccc(C#N)c(C(F)(F)F)c3)C(=O)C2(C)C)cc1F [MDV3100, reference compound] | – | – | unaffected | unaffected | Antiproliferative activity in the presence of 1 nM R1881 (LnCAP cells [3]): ineffective in the presence of higher androgen levels
4 | CC1(C)C(=O)N(c2ccc(C#N)c(C(F)(F)F)c2)C(=S)N1CCCC(=O)NCCOCCOC(=O)CC12CC3CC(CC(C3)C1)C2 [SARD 279, 2-(2-(4-(3-(4-Cyano-3-(trifluoromethyl)phenyl)-5,5-dimethyl-4-oxo-2-thioxoimidazolidin-1-yl)butanamido)ethoxy)ethyl 2-(adamantan-1-yl)acetate] | – | – | – | – | DC50 (androgen receptor (AR); read-out: DC50 (half maximum degradation concentration) of AR): 1000 nM; Cytotoxicity compared to vehicle (HEK293 cells): did not display cytotoxic results; Cytotoxicity compared to vehicle (HeLa cells): did not display cytotoxic results
5 | CC1(C)C(=O)N(c2ccc(C#N)c(C(F)(F)F)c2)C(=S)N1CCCC(=O)NCCOCCOCCOCCOC12CC3CC(CC(C3)C1)C2 [SARD 033, N-(2-(2-(2-(2-(Adamantan-1-yloxy)ethoxy)ethoxy)ethoxy)ethyl)-4-(3-(4-cyano-3-(trifluoromethyl)phenyl)-5,5-dimethyl-4-oxo-2-thioxoimidazolidin-1-yl)butanamide] | – | no such agonist activity | unaffected | unaffected | Cell growth / proliferation of LnCAP cells (LnCAP cells [4]; 1 μM, several days): significantly attenuated cell growth; Proliferation of LNCaP cells, viable cell count (LnCAP cells [4]; 3 μM, 10% FBS, hemocytometer with Trypan blue, over 9 days): suppressed proliferation with similar efficacy to MDV3100; Antagonism of gene expression induced by R1881 ([1]; qPCR): antagonized gene expression induced by the synthetic androgen R1881
6 | CCOCCOCCNC(=O)CCCN1C(=S)N(c2ccc(C#N)c(C(F)(F)F)c2)C(=O)C1(C)C [SARD 280, 4-(3-(4-Cyano-3-(trifluoromethyl)phenyl)-5,5-dimethyl-4-oxo-2-thioxoimidazolidin-1-yl)-N-(2-(2-ethoxyethoxy)ethyl)butanamide] | affected degradation only at higher concentrations and did not achieve complete AR degradation at the concentrations assayed | – | – | – | –
